Results taken from patent publication US20020137929A1, “1 - (3-heterocyclylphenyl) isothiourea, -isourea, -guanidine and -amidine herbicidal agents” (Intellectual Property Department, BASF Aktiengesellschaft, priority 1998, published 2002).

Key:
ORYSAT (Rice, Tebonnet) = experiment: Postemergence herbicidal evaluation; assay type: in vivo, Oryza sativa, (L.) Tebonnet; conditions: postemergence
Summary of the method: (§1)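 Two-week-old seedlings sprayed with compound in 50/50 acetone/water plus 0.5% TWEEN 20, at about 0.0156 to 0.500 kg/ha, nozzle at 40 psi. Kept in greenhouse; rated visually 4-5 weeks after treatment on a 0-9 scale versus control, repeat tests averaged.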

CASOB (Sicklepod) [1] = experiment: Preemergence herbicidal evaluation; assay type: in vivo, Cassia obtusifolia; conditions: rated 4-5 weeks after treatment, rating scale 0-9
Summary of the method: (§2)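 Scores (0–9) reflect visual comparison with control plants for stand, vigor, malformation, size and chlorosis. Compound was applied to the soil after sowing, before emergence, as an aqueous acetone spray (about 0.0156–0.500 kg/ha), and cups were kept in a greenhouse for 4–5 weeks.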

ZEAMX (Corn, Field) = experiment: Preemergence herbicidal evaluation; assay type: in vivo, Zea mays; conditions: rated 4-5 weeks after treatment, rating scale 0-9
Summary of the method: as §2

CYPSE (Flatsedge) = experiment: Preemergence weed control under flooded paddy conditions; assay type: in vivo, Cyperus serotinus; conditions: rated 3-4 weeks after treatment
Summary of the method: (§3)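 First, seeds or propagules go into the top 0.5 cm of silt loam; next, water is held 1.5 to 3 cm over the soil; then compound (50/50 acetone/water) is pipetted into it at about 0.0313 to 0.500 kg/ha; finally plants are rated visually 0-9 after three to four weeks.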

SETVI (Foxtail, Green) = experiment: Postemergence herbicidal evaluation; assay type: in vivo, Setaria viridis; conditions: postemergence
Summary of the method: as §1

[2] = test system: GLXMAW (Soybean, Williams); experiment: Postemergence herbicidal evaluation; assay type: in vivo, Glycine max, (L.) Merr. cv Williams; conditions: postemergence
Summary of the method: as §1

[3] = test system: SAGPY (Arrowhead (Pygmaea)); experiment: Preemergence weed control under flooded paddy conditions; assay type: in vivo, Sagittaria pygmaea; conditions: rated 3-4 weeks after treatment
Summary of the method: as §3

AMBEL (Ragweed, Common) = experiment: Postemergence herbicidal evaluation; assay type: in vivo, Ambrosia artemisifolia; conditions: postemergence
Summary of the method: as §1

[4] = test system: CHEAL (Lambsquarters, Common); experiment: Postemergence herbicidal evaluation; assay type: in vivo, Chenopodium album; conditions: postemergence
Summary of the method: as §1

CYPIR (Rice Flatsedge) = experiment: Preemergence weed control under flooded paddy conditions; assay type: in vivo, Cyperus iria; conditions: rated 3-4 weeks after treatment
Summary of the method: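 Silt loam, seeds in top 0.5 cm; flood held 1.5-3 cm; test cpd as acetone/water 50/50 into flood water, ~0.0313-0.500 kg/ha a.i.; greenhouse 3-4 wk; visual 0-9 score vs control.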

CASOB (Sicklepod) [5] = experiment: Postemergence herbicidal evaluation; assay type: in vivo, Cassia obtusifolia; conditions: postemergence
Summary of the method: as §1

GALAP (Galium) [6] = experiment: Preemergence herbicidal evaluation; assay type: in vivo, Galium aparine; conditions: rated 4-5 weeks after treatment, rating scale 0-9
Summary of the method: as §2

ECHCG (Barnyardgrass) = experiment: Postemergence herbicidal evaluation; assay type: in vivo, Echinochloa crus-galli; conditions: postemergence
Summary of the method: as §1

GALAP (Galium) [7] = experiment: Postemergence herbicidal evaluation; assay type: in vivo, Galium aparine; conditions: postemergence
Summary of the method: as §1

Cn1c(C(F)(F)F)cc(=O)n(-c2cc(N=C3SCC(=O)N3Cc3cccnc3)c(Cl)cc2F)c1=O [Compound 132, 3-{4-Chloro-2-fluoro-5-{[4-oxo-3-(3-pyridylmethyl)-2-thiazolidinylidene]amino}phenyl}-1-methyl-6-(trifluoromethyl)-2,4 (1H,3H)-pyrimidinedione]
Herbicidal rating ORYSAT (ORYSAT (Rice, Tebonnet); rate 0.0156 kg/ha): 2.0
Herbicidal rating ORYSAT (ORYSAT (Rice, Tebonnet); rate 0.0313 kg/ha): 3.0
Herbicidal rating ORYSAT (ORYSAT (Rice, Tebonnet); rate 0.0625 kg/ha): 3.5
Preemergence herbicidal rating CASOB (CASOB (Sicklepod) [1]; rate 0.0625 kg/ha): 0.0
Preemergence herbicidal rating CASOB (CASOB (Sicklepod) [1]; rate 0.2500 kg/ha): 0.0
Preemergence herbicidal rating ZEAMX (ZEAMX (Corn, Field); rate 0.0625 kg/ha): 0.0
Preemergence herbicidal rating ZEAMX (ZEAMX (Corn, Field); rate 0.1250 kg/ha): 0.0
Preemergence herbicidal rating ZEAMX (ZEAMX (Corn, Field); rate 0.2500 kg/ha): 2.0
herbicidal effect rating, CYPSE (CYPSE (Flatsedge); 0.0313 kg/ha): 0.0
herbicidal effect rating, CYPSE (CYPSE (Flatsedge); 0.0625 kg/ha): 0.0
herbicidal effect rating, CYPSE (CYPSE (Flatsedge); 0.1250 kg/ha): 0.0
herbicidal effect rating, CYPSE (CYPSE (Flatsedge); 0.2500 kg/ha): 0.0
Herbicidal rating SETVI (SETVI (Foxtail, Green); rate 0.0156 kg/ha): 1.0
Herbicidal rating SETVI (SETVI (Foxtail, Green); rate 0.0313 kg/ha): 4.0
Herbicidal rating SETVI (SETVI (Foxtail, Green); rate 0.0625 kg/ha): 3.0
Herbicidal rating GLXMAW ([2]; rate 0.0156 kg/ha): 5.0
Herbicidal rating GLXMAW ([2]; rate 0.0313 kg/ha): 5.0
Herbicidal rating GLXMAW ([2]; rate 0.0625 kg/ha): 6.0
herbicidal effect rating, SAGPY ([3]; 0.0313 kg/ha): 0.0
herbicidal effect rating, SAGPY ([3]; 0.0625 kg/ha): 0.0
herbicidal effect rating, SAGPY ([3]; 0.1250 kg/ha): 0.0
herbicidal effect rating, SAGPY ([3]; 0.2500 kg/ha): 0.0
Herbicidal rating AMBEL (AMBEL (Ragweed, Common); rate 0.0156 kg/ha): 5.0
Herbicidal rating AMBEL (AMBEL (Ragweed, Common); rate 0.0313 kg/ha): 9.0
Herbicidal rating AMBEL (AMBEL (Ragweed, Common); rate 0.0625 kg/ha): 9.0
Herbicidal rating CHEAL ([4]; rate 0.0156 kg/ha): 4.0
Herbicidal rating CHEAL ([4]; rate 0.0313 kg/ha): 4.0
Herbicidal rating CHEAL ([4]; rate 0.0625 kg/ha): 9.0
herbicidal effect rating, CYPIR (CYPIR (Rice Flatsedge); 0.0313 kg/ha): 0.0
herbicidal effect rating, CYPIR (CYPIR (Rice Flatsedge); 0.0625 kg/ha): 0.0
herbicidal effect rating, CYPIR (CYPIR (Rice Flatsedge); 0.1250 kg/ha): 0.0
herbicidal effect rating, CYPIR (CYPIR (Rice Flatsedge); 0.2500 kg/ha): 3.0
Herbicidal rating CASOB (CASOB (Sicklepod) [5]; rate 0.0156 kg/ha): 1.0
Herbicidal rating CASOB (CASOB (Sicklepod) [5]; rate 0.0313 kg/ha): 1.0
Herbicidal rating CASOB (CASOB (Sicklepod) [5]; rate 0.0625 kg/ha): 6.0
Preemergence herbicidal rating GALAP (GALAP (Galium) [6]; rate 0.0625 kg/ha): 4.0
Preemergence herbicidal rating GALAP (GALAP (Galium) [6]; rate 0.1250 kg/ha): 4.0
Preemergence herbicidal rating GALAP (GALAP (Galium) [6]; rate 0.2500 kg/ha): 5.0
Herbicidal rating ECHCG (ECHCG (Barnyardgrass); rate 0.0156 kg/ha): 1.0
Herbicidal rating ECHCG (ECHCG (Barnyardgrass); rate 0.0313 kg/ha): 2.0
Herbicidal rating ECHCG (ECHCG (Barnyardgrass); rate 0.0625 kg/ha): 2.0
Herbicidal rating GALAP (GALAP (Galium) [7]; rate 0.0156 kg/ha): 2.0
Herbicidal rating GALAP (GALAP (Galium) [7]; rate 0.0313 kg/ha): 2.0
Herbicidal rating GALAP (GALAP (Galium) [7]; rate 0.0625 kg/ha): 3.0

Cn1c(C(F)(F)F)cc(=O)n(-c2cc(N=C3SCC(=O)N3Cc3ccncc3)c(Cl)cc2F)c1=O [Compound 133, 3-{4-Chloro-2-fluoro-5-{[4-oxo-3-(4-pyridylmethyl)-2-thiazolidinylidene]amino}phenyl}-1-methyl-6-(trifluoromethyl)-2,4(1H,3H)-pyrimidinedione]
Herbicidal rating ORYSAT (ORYSAT (Rice, Tebonnet); rate 0.0156 kg/ha): 2.5
Herbicidal rating ORYSAT (ORYSAT (Rice, Tebonnet); rate 0.0313 kg/ha): 2.5
Herbicidal rating ORYSAT (ORYSAT (Rice, Tebonnet); rate 0.0625 kg/ha): 3.0
Preemergence herbicidal rating CASOB (CASOB (Sicklepod) [1]; rate 0.0313 kg/ha): 0.0
Preemergence herbicidal rating CASOB (CASOB (Sicklepod) [1]; rate 0.0625 kg/ha): 0.0
Preemergence herbicidal rating CASOB (CASOB (Sicklepod) [1]; rate 0.1250 kg/ha): 0.0
Preemergence herbicidal rating CASOB (CASOB (Sicklepod) [1]; rate 0.2500 kg/ha): 9.0
Preemergence herbicidal rating ZEAMX (ZEAMX (Corn, Field); rate 0.0313 kg/ha): 0.0
Preemergence herbicidal rating ZEAMX (ZEAMX (Corn, Field); rate 0.0625 kg/ha): 0.0
Preemergence herbicidal rating ZEAMX (ZEAMX (Corn, Field); rate 0.1250 kg/ha): 0.0
Preemergence herbicidal rating ZEAMX (ZEAMX (Corn, Field); rate 0.2500 kg/ha): 0.0
herbicidal effect rating, CYPSE (CYPSE (Flatsedge); 0.0313 kg/ha): 0.0
herbicidal effect rating, CYPSE (CYPSE (Flatsedge); 0.0625 kg/ha): 0.0
herbicidal effect rating, CYPSE (CYPSE (Flatsedge); 0.1250 kg/ha): 0.0
herbicidal effect rating, CYPSE (CYPSE (Flatsedge); 0.2500 kg/ha): 1.0
Herbicidal rating SETVI (SETVI (Foxtail, Green); rate 0.0156 kg/ha): 1.0
Herbicidal rating SETVI (SETVI (Foxtail, Green); rate 0.0313 kg/ha): 1.0
Herbicidal rating SETVI (SETVI (Foxtail, Green); rate 0.0625 kg/ha): 2.0
Herbicidal rating GLXMAW ([2]; rate 0.0156 kg/ha): 5.0
Herbicidal rating GLXMAW ([2]; rate 0.0313 kg/ha): 5.0
Herbicidal rating GLXMAW ([2]; rate 0.0625 kg/ha): 5.0
herbicidal effect rating, SAGPY ([3]; 0.0313 kg/ha): 0.0
herbicidal effect rating, SAGPY ([3]; 0.0625 kg/ha): 3.0
herbicidal effect rating, SAGPY ([3]; 0.1250 kg/ha): 3.0
herbicidal effect rating, SAGPY ([3]; 0.2500 kg/ha): 3.0
Herbicidal rating AMBEL (AMBEL (Ragweed, Common); rate 0.0156 kg/ha): 9.0
Herbicidal rating AMBEL (AMBEL (Ragweed, Common); rate 0.0313 kg/ha): 6.0
Herbicidal rating AMBEL (AMBEL (Ragweed, Common); rate 0.0625 kg/ha): 9.0
Herbicidal rating CHEAL ([4]; rate 0.0156 kg/ha): 9.0
Herbicidal rating CHEAL ([4]; rate 0.0313 kg/ha): 6.0
Herbicidal rating CHEAL ([4]; rate 0.0625 kg/ha): 9.0
herbicidal effect rating, CYPIR (CYPIR (Rice Flatsedge); 0.0313 kg/ha): 0.0
herbicidal effect rating, CYPIR (CYPIR (Rice Flatsedge); 0.0625 kg/ha): 0.0
herbicidal effect rating, CYPIR (CYPIR (Rice Flatsedge); 0.1250 kg/ha): 2.0
herbicidal effect rating, CYPIR (CYPIR (Rice Flatsedge); 0.2500 kg/ha): 3.0
Herbicidal rating CASOB (CASOB (Sicklepod) [5]; rate 0.0156 kg/ha): 0.0
Herbicidal rating CASOB (CASOB (Sicklepod) [5]; rate 0.0313 kg/ha): 1.0
Herbicidal rating CASOB (CASOB (Sicklepod) [5]; rate 0.0625 kg/ha): 3.0
Preemergence herbicidal rating GALAP (GALAP (Galium) [6]; rate 0.0313 kg/ha): 0.0
Preemergence herbicidal rating GALAP (GALAP (Galium) [6]; rate 0.0625 kg/ha): 0.0
Preemergence herbicidal rating GALAP (GALAP (Galium) [6]; rate 0.1250 kg/ha): 0.0
Preemergence herbicidal rating GALAP (GALAP (Galium) [6]; rate 0.2500 kg/ha): 0.0
Herbicidal rating ECHCG (ECHCG (Barnyardgrass); rate 0.0156 kg/ha): 1.0
Herbicidal rating ECHCG (ECHCG (Barnyardgrass); rate 0.0313 kg/ha): 1.0
Herbicidal rating ECHCG (ECHCG (Barnyardgrass); rate 0.0625 kg/ha): 1.0
Herbicidal rating GALAP (GALAP (Galium) [7]; rate 0.0156 kg/ha): 0.0
Herbicidal rating GALAP (GALAP (Galium) [7]; rate 0.0313 kg/ha): 2.0
Herbicidal rating GALAP (GALAP (Galium) [7]; rate 0.0625 kg/ha): 3.0
